Data from the supplement of paper PMC10307832.

Key:
Assay in all cases: relative viability (nuclei count vs DMSO), 5 days (fraction); higher = more cells survive
[1] = compound: C[C@]12O[C@H](C[C@]1(O)CO)n1c3ccccc3c3c4c(c5c6ccccc6n2c5c31)CNC4=O [Lestaurtinib] + N=C(N)NC(=N)NCCc1ccccc1 [Phenformin] (partner 250 µM)
Outline: (§1)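 Medians of duplicate plates are given as relative viability. That measure is the nuclei count in treated wells divided by the count in vehicle wells. Counts were taken on 4× images of lung cancer cell lines in 1536-well plates, 5 days after pin-tool dosing the day after seeding with one drug alone or a fixed anchor-drug dose plus five library-drug doses (not always all listed) in √10 steps.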

[2] = compound: C[C@]12O[C@H](C[C@]1(O)CO)n1c3ccccc3c3c4c(c5c6ccccc6n2c5c31)CNC4=O [Lestaurtinib] + O=C(c1cc(Cc2n[nH]c(=O)c3ccccc23)ccc1F)N1CCN(C(=O)C2CC2)CC1 [Olaparib] (partner 8 µM)
Outline: as §1

[3] = compound: C[C@]12O[C@H](C[C@]1(O)CO)n1c3ccccc3c3c4c(c5c6ccccc6n2c5c31)CNC4=O [Lestaurtinib] + CC1(C)CCC(c2ccc(Cl)cc2)=C(CN2CCN(c3ccc(C(=O)NS(=O)(=O)c4ccc(N[C@H](CCN5CCOCC5)CSc5ccccc5)c(S(=O)(=O)C(F)(F)F)c4)cc3)CC2)C1 [Navitoclax] (partner 0.5 µM)
Outline: as §1

[4] = compound: C1/C(=C\C2=CC=CS2)/C(=O)/C(=C/C3=CC=CS3)/C1 + COc1cccc2cc(-c3nc([C@H]4CC[C@H](C(=O)O)CC4)n4ncnc(N)c34)[nH]c12 [OSI-027] (partner 0.5 µM)
Outline: as §1

With UMC-11 the relative viability ([1]; first compound 0.005 µM) was 0.359, the relative viability ([1]; first compound 0.01581 µM) was 0.327 and the relative viability ([1]; first compound 0.05 µM) was 0.239. For the same cell line, the relative viability ([1]; first compound 0.1581 µM) was 0.176, the relative viability ([1]; first compound 0.5 µM) was 0.144 and the relative viability ([2]; first compound 0.005 µM) was 0.402. It also gave a relative viability ([2]; first compound 0.01581 µM) of 0.466, a relative viability ([2]; first compound 0.05 µM) of 0.384 and a relative viability ([2]; first compound 0.1581 µM) of 0.273. It also gave a relative viability ([2]; first compound 0.5 µM) of 0.171, a relative viability ([3]; first compound 0.005 µM) of 0.294 and a relative viability ([3]; first compound 0.01581 µM) of 0.275. For the same cell line, the relative viability ([3]; first compound 0.05 µM) was 0.251, the relative viability ([3]; first compound 0.1581 µM) was 0.144 and the relative viability ([3]; first compound 0.5 µM) was 0.143. For the same cell line, the relative viability ([4]; first compound 0.2 µM) was 0.474, the relative viability ([4]; first compound 0.6325 µM) was 0.484 and the relative viability ([4]; first compound 20 µM) was 0.45.
